Measured values as given in publication PMC4558462, “A new small molecule inhibitor of soluble guanylate cyclase” (Bioorganic & Medicinal Chemistry, 2015).

Molecular target: T1, full-length enzyme (sGC) (Homo sapiens, UniProt Q02108+Q02153)
T1 construct: Full-length human recombinant guanylyl cyclase (soluble); purchased Enzo lifesciences ALX-201-177
T1 sequence (Q02108 1-690): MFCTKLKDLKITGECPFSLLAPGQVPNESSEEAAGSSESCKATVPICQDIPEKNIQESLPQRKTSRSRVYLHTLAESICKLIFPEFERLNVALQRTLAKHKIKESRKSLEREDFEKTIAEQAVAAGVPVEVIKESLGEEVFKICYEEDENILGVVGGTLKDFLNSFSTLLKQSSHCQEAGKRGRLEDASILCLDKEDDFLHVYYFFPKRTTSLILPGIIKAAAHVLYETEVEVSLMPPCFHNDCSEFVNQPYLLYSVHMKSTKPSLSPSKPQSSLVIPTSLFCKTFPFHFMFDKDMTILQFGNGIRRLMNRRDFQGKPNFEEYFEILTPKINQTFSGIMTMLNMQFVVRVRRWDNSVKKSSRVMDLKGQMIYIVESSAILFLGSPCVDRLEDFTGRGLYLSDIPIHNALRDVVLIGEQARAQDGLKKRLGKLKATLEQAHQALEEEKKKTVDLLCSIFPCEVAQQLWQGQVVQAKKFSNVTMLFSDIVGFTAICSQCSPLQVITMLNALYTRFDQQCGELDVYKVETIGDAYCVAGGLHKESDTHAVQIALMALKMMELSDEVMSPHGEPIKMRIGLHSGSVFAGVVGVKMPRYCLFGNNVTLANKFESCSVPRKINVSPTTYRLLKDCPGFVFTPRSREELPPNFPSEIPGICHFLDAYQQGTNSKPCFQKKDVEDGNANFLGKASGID
T1 sequence (Q02153 1-619): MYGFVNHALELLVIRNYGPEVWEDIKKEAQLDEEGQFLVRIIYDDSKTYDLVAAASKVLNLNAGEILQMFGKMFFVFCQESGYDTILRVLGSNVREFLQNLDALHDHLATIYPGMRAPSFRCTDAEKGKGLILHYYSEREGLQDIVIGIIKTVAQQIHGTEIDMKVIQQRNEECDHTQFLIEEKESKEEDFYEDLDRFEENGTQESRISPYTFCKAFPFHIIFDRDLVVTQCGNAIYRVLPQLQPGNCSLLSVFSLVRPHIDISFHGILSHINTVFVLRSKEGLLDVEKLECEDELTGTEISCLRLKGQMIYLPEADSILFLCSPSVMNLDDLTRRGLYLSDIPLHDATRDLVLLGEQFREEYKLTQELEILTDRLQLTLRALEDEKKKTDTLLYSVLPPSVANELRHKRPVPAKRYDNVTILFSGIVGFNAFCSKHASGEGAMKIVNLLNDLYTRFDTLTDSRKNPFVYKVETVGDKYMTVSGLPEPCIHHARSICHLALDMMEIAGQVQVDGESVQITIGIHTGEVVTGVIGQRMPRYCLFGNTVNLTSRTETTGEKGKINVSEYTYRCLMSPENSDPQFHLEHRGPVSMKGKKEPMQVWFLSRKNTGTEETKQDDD
Assay: SPR binding to full-length sGC
Method: Full-length human recombinant guanylyl cyclase (soluble) and bovine lung guanylyl cyclase (soluble) were obtained from Enzo lifesciences (catalogue numbers ALX-201-177 and ALX-202-039-C005). Biacore consumables were purchased from GE Healthcare (UK), including buffer stock solutions. All other reagents used were obtained from Sigma. Starting materials were either commercially available or synthesized according to methods reported in the literature. ^1H and ^13C NMR spectra were recorded on a Bruker AMX-300 or a Bruker AMX-500 spectrometer. Chemical shifts are reported as ppm relative to TMS internal standard. Mass spectra were recorded on a Fisons VG70-SE spectrometer (EI, FAB) or an Agilent 6100 Series LC-mass spectrometer using C-18 or C-4 columns. Microwave reactions were carried out using a CEM Discover microwave.
Surface plasmon resonance (SPR) experiments were performed with a Biacore T200 instrument at 25 °C. Data processing and analysis were performed using BIAevaluation software and Scrubber2. All sensorgrams were double referenced by subtracting the response in a reference flowcell and a blank sample. Materials and methods used were the same as previously published.[24]

Structure (SMILES): O=[N+]([O-])c1ccc2nc(Nc3ccc(O)cc3)c(Nc3ccc(O)cc3)nc2c1 [Compound 10, 4,4′-((6-Nitroquinoxaline-2,3-diyl)bis(azanediyl))diphenol]
- Kd: 19.4 ± 2.1 µM
